In US10265327B2, “V1A antagonists to treat phase shift sleep disorders” (Hoffmann-La Roche Inc., priority 2013, dated 2019):
Read-outs that look alike come from different tables or passages of the source.

Target: T1, human V1a receptor (hV1a) (Homo sapiens, UniProt P37288)
T1 construct: expressed in transfected cells; host or cells: HEK cells, transient transfection; membrane preparation
Assay: Radioligand binding assay (3H-AVP, SPA), human V1a
Details: 1 nM 3H-AVP
Protocol: The test compound was initially dissolved in DMSO at a concentration of 10 mM. Subsequent dilutions were made in assay buffer with a maximum final concentration of 0.2% DMSO.
Recombinant vasopressin V1a (human: hV1a; mouse: mV1a), V1b (human: hV1b) were independently expressed in human embryonic kidney (HEK) cells using transient transfection. The cell membranes expressing the various receptors were prepared by homogenizing (using Polytron homogenizer) the cell culture pellet in lysis buffer (50 mM HEPES, 1 mM EDTA, 10 mM MgCl2, pH 7.4 with protease inhibitors), then centrifuging the resulting suspension at 500 g for 20 min at 4° C. The supernatant was subsequently re-centrifuged at 43,000 g for 1 hour at 4° C. […] The concentration of protein was determined, and the membranes were aliquoted and stored at −80° C. until further use.
All radioligand binding assays were carried out in 96-well plates in the presence of 1 nM ^3H-AVP (vasopressin) radioligand, and 10 concentrations of test compound (ranging from 27 μM-1 nM or 2.7 μM-0.1 nM for hV1a binding). […] Filtration assays were terminated by rapid filtration under vacuum through GF/C filters, presoaked for 5 min with buffer B containing Tris 50 mM, MgCl2 5 mM, 0.1% BSA (pH 7.4), followed by 5×0.4 ml washes of ice-cold buffer B. For both SPA and filtration plates, bound ligand was determined using a Packard Topcount scintillation counter. […]

T1 sequence (P37288 whole entry): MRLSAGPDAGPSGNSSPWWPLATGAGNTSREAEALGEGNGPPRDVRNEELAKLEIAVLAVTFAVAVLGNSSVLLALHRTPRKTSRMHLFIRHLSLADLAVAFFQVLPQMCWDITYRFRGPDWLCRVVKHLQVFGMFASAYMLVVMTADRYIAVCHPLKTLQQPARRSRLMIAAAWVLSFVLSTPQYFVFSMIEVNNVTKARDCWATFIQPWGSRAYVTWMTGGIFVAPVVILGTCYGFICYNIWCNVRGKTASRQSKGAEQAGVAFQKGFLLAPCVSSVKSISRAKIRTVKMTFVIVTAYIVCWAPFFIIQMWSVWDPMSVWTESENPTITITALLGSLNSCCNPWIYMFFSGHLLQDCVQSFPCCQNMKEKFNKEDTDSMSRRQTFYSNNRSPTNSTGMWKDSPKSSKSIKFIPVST

`CN1Cc2cc(Cl)ccc2-n2c(nnc2[C@H]2CC[C@H](Oc3ccccn3)CC2)C1` [Example 1, trans-8-chloro-5-methyl-1-(4-pyridin-2-yloxycyclohexyl)-4,6-dihydro-[1,2,4]triazolo[4,3-a][1,4]benzodiazepine] showed a Ki (Ki ± SEM (n), read-out: Ki V1a Human) of 0.7 ± 0.1 nM and a Ki (pKi ± SEM (n), read-out: pKi V1a Human (converted)) of 0.776 nM.
